According to patent US20250051277A1, “DELIVERY OF THERAPEUTIC ALKALOID COMPOUNDS” (Sensorium Therapeutics, Inc., priority 2021, published 2025):
Read-outs that look alike come from different tables or passages of the source.

What was measured:
[1] = 10 μM
Method: 50 μL aliquots of positive controls and test compounds spiked into rat or human plasma (n=2) were added to a pre-warmed plate (37° C.) and shaken at 50 rpm. At each respective time point, the reaction was stopped by adding 500 μL of acetonitrile containing internal standards (100 nM aprozolam, 200 nM caffeine, 100 nM tolbutamide). All samples were vortexed for 10 minutes, followed by centrifugation at 3,220 g for 30 minutes to precipitate proteins. 100 μL of the supernatant is transferred to a new plate. The supernatant will be diluted with ultrapure water according to the LC-MS signal response and peak shape.

[2] = 10 μM; remark: listed apart in the source
[3] = assay type: physicochemical; conditions: SGF with pepsin, pH 1.5, 37° C.; for Condition 1 Conversion (%): 0.5 mM; for Condition 1 Conversion (%), first value of pair x/y: first of two values; for Condition 1 Conversion (%), second value of pair x/y: second of two values
[4] = assay type: physicochemical; conditions: DI water, 25° C., 0.5 mM

Structure (SMILES)	Condition 1 Conversion (%) ([3]; time 1 min)	Condition 1 Conversion (%) ([3]; time 5 min)	Condition 1 Conversion (%) ([3]; time 30 min)	Condition 1 Conversion (%) ([3]; time 1 h)	Condition 1 Conversion (%) ([3]; time 4 h)	Condition 1 Conversion (%) ([3]; time 24 h)	Condition 2 Conversion (%) ([4]; time 1 min)	Condition 2 Conversion (%) ([4]; time 5 min)	Condition 2 Conversion (%) ([4]; time 30 min)	Condition 2 Conversion (%) ([4]; time 1 h)	Condition 2 Conversion (%) ([4]; time 4 h)	Condition 2 Conversion (%) ([4]; time 24 h)	also measured
CCC(C)C(=O)OC1=C[C@@H]2N(C)CC[C@]2(c2ccc(OC)c(OC)c2)CC1 (stereo partly drawn) [Compound 425, (3aS,7aS)-3a-(3,4-dimethoxyphenyl)-1-methyl-2,3,3a,4,5,7a-hexahydro-1H-indol-6-yl2-methylbutanoate]													Prodrug (%) remaining, Rat Plasma ([1]; 0 h): 100.0%; Prodrug (%) remaining, Rat Plasma ([1]; 10 min): 4.4%; Prodrug (%) remaining, Rat Plasma ([1]; 0.5 h): 0.1%; Prodrug (%) remaining, Rat Plasma ([1]; 1 h): 0.0%; Prodrug (%) remaining, Rat Plasma ([1]; 2 h): 0.0%; Prodrug (%) remaining, Rat Plasma ([1]; 4 h): 0.0%; Prodrug (%) remaining, Human Plasma ([2]; 0 h): 100.0%; Prodrug (%) remaining, Human Plasma ([2]; 10 min): 6.5%; Prodrug (%) remaining, Human Plasma ([2]; 0.5 h): 4.8%; Prodrug (%) remaining, Human Plasma ([2]; 1 h): 4.0%; Prodrug (%) remaining, Human Plasma ([2]; 2 h): 3.0%; Prodrug (%) remaining, Human Plasma ([2]; 4 h): 1.9%
COc1ccc([C@@]23CCC(=NOC(C)(C)C)C[C@@H]2N(C)CC3)cc1OC [Compound 199, (3aS)-N-tert-butoxy-3a-(3,4-dimethoxyphenyl)-1-methyl-2,3,4,5,7,7a-hexahydroindol-6-imine]	0%	0%	0%	4.2%	23.6%	27.3%	0%	0%	0%	0%	0%	0%	
COc1ccc([C@@]23CC/C(=N\NC(=O)C4(C(=O)O)CC4)C[C@@H]2N(C)CC3)cc1OC [Compound 243, 1-[[[(3aS,7aS)-3a-(3,4-dimethoxyphenyl)-1-methyl-2,3,4,5,7,7a-hexahydroindol-6-ylidene]amino]carbamoyl]cyclopropanecarboxylic acid]	80.17%	100%	100%	100%	100%	100%	0%	0%	0%	0%	27.04%	46.78%	
COc1ccc([C@@]23CC/C(=N\NC(=O)c4ccccc4C(=O)O)C[C@@H]2N(C)CC3)cc1OC [Compound 244, 2-[[[(3aS,7aS)-3a-(3,4-dimethoxyphenyl)-1-methyl-2,3,4,5,7,7a-hexahydroindol-6-ylidene]amino]carbamoyl]benzoic acid]	33.93%	100%	100%	100%	100%	100%	0%	0%	4.08%	15.25%	24.59%	66.56%	
COc1ccc([C@@]23CCC(=NOCc4ccccc4)C[C@@H]2N(C)CC3)cc1OC [Compound 208, (3aS,7aS)-N-benzyloxy-3a-(3,4-dimethoxyphenyl)-1-methyl-2,3,4,5,7,7a-hexahydroindol-6-imine]	0%	0%	0%	0%	11.5%	12%	0%	0%	0%	0%	0%	0%	
COc1ccc([C@@]23CCC(=NOCCC45CC6CC(CC(C6)C4)C5)C[C@@H]2N(C)CC3)cc1OC [Compound 276, (3aS,7aS)-N-[2-(1-adamantyl)ethoxy]-3a-(3,4-dimethoxyphenyl)-1-methyl-2,3,4,5,7,7a-hexahydroindol-6-imine]	0%	0%	0%	2.77%	5.48%	5.5%	0%	0%	0%	0%	0%	0%	
COc1ccc([C@@]23CCC(=NNC(C)=O)C[C@@H]2N(C)CC3)cc1OC [Compound 222, N-[[(3aS,7aS)-3a-(3,4-dimethoxyphenyl)-1-methyl-2,3,4,5,7,7a-hexahydroindol-6-ylidene]amino]acetamide]	100%	100%	100%	100%	100%	100%	10%	20%	50%	100%	100%	100%	
COc1ccc([C@@]23CCC(=NOC4CCCCO4)C[C@@H]2N(C)CC3)cc1OC (stereo partly drawn) [Compound 206, (3aS,7aS)-3a-(3,4-dimethoxyphenyl)-1-methyl-N-tetrahydropyran-2-yloxy-2,3,4,5,7,7a-hexahydroindol-6-imine]	0%	0%					0%	0%	0%	0%	0%	0%	Condition 1 Conversion (%), first value of pair x/y ([3]; time 30 min): 1.41%; Condition 1 Conversion (%), second value of pair x/y ([3]; time 30 min): 0%; Condition 1 Conversion (%), first value of pair x/y ([3]; time 1 h): 7.83%; Condition 1 Conversion (%), second value of pair x/y ([3]; time 1 h): 2.57%; Condition 1 Conversion (%), first value of pair x/y ([3]; time 4 h): 0%; Condition 1 Conversion (%), second value of pair x/y ([3]; time 4 h): 77.75%; Condition 1 Conversion (%), first value of pair x/y ([3]; time 24 h): 0%; Condition 1 Conversion (%), second value of pair x/y ([3]; time 24 h): 100%
COc1ccc([C@@]23CC/C(=N/OC45CC6CC(CC(C6)C4)C5)C[C@@H]2N(C)CC3)cc1OC [Compound 274, (Z,3aS,7aS)-N-(1-adamantyloxy)-3a-(3,4-dimethoxyphenyl)-1-methyl-2,3,4,5,7,7a-hexahydroindol-6-imine]	0%	0%	0%	0%	35.5%	39.91%	0%	0%	0%	0%	0%	0%	
COc1ccc([C@@]23CCC(=NNc4ccc(C(=O)O)cc4)C[C@@H]2N(C)CC3)cc1OC [Compound 363, 4-[2-[(3aS,7aS)-3a-(3,4-dimethoxyphenyl)-1-methyl-2,3,4,5,7,7a-hexahydroindol-6-ylidene]hydrazino]benzoic acid]	0%	0%	0%	2.1%	27.1%	46.7%	0%	0%	0%	0%	0%	8.1%	
COc1ccc([C@@]23CCC(=NNc4ccc(F)cc4)C[C@@H]2N(C)CC3)cc1OC [Compound 361, (3aS,7aS)-3a-(3,4-dimethoxyphenyl)-6-(2-(4-fluorophenyl)-hydrazineylidene)-1-methyloctahydro-1H-indole]	10%	100%	100%	100%	100%	100%	0%	0%	0%	0%	45%	100%	
COc1ccc([C@@]23CCC(=NNC(=O)C(=O)O)C[C@@H]2N(C)CC3)cc1OC [Compound 241, 2-[2-[(3aS,7aS)-3a-(3,4-dimethoxyphenyl)-1-methyl-2,3,4,5,7,7a-hexahydroindol-6-ylidene]hydrazino]-2-oxo-acetic acid]	100%	100%	100%	100%	100%	100%	0%	28%	30%	52%	86%	100%	
